Measured values from patent US20260176320A1, “MODULATORS OF G-PROTEIN COUPLED RECEPTORS” (priority 2018, published 2026).
Like-named read-outs stand apart in the source and are kept apart here. Square brackets hold non-standard residues; d marks the D form. Peptide text beside a SMILES is read from it. * marks the point of attachment. X1 = O=C(CSCC(=O)*)NCCN1C(=O)c2ccccc2C1=O; Aib = CC(C)(N)C(=O)O

Key:
Type in all cases: cell-based
[1] = biological target: T1, GLP-1R (Homo sapiens, UniProt P43220); assay: HitHunter cAMP assay (GLP-1R); details: cAMP; for Emax: read-out: (Emax) GLP-1R
T1 sequence (P43220 24-463): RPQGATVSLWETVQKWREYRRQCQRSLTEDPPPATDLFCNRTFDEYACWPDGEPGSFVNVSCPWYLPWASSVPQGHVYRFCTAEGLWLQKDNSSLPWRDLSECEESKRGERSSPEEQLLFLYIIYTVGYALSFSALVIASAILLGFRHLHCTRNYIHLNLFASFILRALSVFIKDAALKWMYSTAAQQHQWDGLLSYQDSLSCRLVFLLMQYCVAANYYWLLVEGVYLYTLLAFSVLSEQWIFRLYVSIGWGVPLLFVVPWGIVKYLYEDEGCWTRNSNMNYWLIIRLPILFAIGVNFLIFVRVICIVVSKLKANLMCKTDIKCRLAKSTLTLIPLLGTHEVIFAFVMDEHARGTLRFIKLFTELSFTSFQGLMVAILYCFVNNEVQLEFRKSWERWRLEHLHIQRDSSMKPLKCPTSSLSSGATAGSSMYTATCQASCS
Method in brief: (§1)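 Suspension cells expressing each receptor (10,000 per well) in HBSS with 10 mM HEPES, 625 μM IBMX and 0.2% BSA were treated with a 22-point 2-fold agonist series in duplicate for 30 minutes at room temperature. cAMP was detected by antibody immunocompetition with luminescence read after overnight incubation.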

[2] = biological target: T2, GIP-R (Homo sapiens, UniProt P48546); assay: HitHunter cAMP assay (GIP-R); details: cAMP; for Emax: read-out: (Emax) GIP-R
T2 sequence (P48546 22-466): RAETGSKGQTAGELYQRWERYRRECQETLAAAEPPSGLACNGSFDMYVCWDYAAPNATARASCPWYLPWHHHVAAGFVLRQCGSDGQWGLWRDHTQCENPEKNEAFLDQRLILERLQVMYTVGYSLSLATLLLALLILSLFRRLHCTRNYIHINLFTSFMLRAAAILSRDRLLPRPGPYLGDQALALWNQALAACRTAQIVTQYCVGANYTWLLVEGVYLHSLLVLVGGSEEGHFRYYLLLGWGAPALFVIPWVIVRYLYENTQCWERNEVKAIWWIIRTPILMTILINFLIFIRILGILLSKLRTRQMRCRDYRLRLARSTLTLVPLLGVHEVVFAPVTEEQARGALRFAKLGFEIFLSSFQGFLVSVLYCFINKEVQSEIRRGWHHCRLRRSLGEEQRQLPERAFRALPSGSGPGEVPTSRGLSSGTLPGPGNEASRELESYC
Method in brief: as §1

[3] = biological target: T1, GLP-1R; assay: PathHunter β-arrestin assay
Method in brief: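 Cells seeded overnight, then medium replaced with medium containing 0.2% BSA; agonists added as 22-point 2-fold DMSO dilution series in duplicate and incubated 90 min at 37 °C, 5% CO2. After addition of detection solution, plates sat 3 h at room temperature in the dark; luminescence read.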

[4] = Table 3, read-out: EC50 GLP-1R/nM
[5] = Table 3A, read-out: EC50 GLP-1R/nM
[6] = Table 3, read-out: EC50 GIP-R/nM
[7] = Table 3A, read-out: EC50 GIP-R/nM
[8] = PathHunter β-arrestin assay, read-out: β-arrestin activity EC50

CC[C@H](C)[C@H](NC(=O)[C@H](CO)NC(=O)[C@H](Cc1ccc(O)cc1)NC(=O)[C@H](CC(=O)O)NC(=O)[C@H](CO)NC(=O)[C@@H](NC(=O)[C@H](Cc1ccccc1)NC(=O)[C@@H](NC(=O)CNC(=O)[C@H](CCC(=O)O)NC(=O)C(C)(C)C(=O)NC)[C@@H](C)O)[C@@H](C)O)C(=O)N[C@@H](Cc1ccc(O)cc1)C(=O)N[C@@H](CC(C)C)C(=O)N[C@@H](CC(=O)O)C(=O)N[C@@H](CCCCN)C(=O)N[C@@H](CCC(N)=O)C(=O)N[C@@H](C)C(=O)N[C@@H](C)C(=O)NC(C)(C)C(=O)N[C@@H](CCC(=O)O)C(=O)N[C@@H](Cc1ccccc1)C(=O)N[C@H](C(=O)N[C@@H](CC(N)=O)C(=O)N[C@@H](Cc1c[nH]c2ccccc12)C(=O)N[C@@H](CC(C)C)C(=O)N[C@@H](CC(C)C)C(=O)N[C@@H](C)C(=O)NCC(=O)NCC(=O)N1CCC[C@H]1C(=O)N[C@@H](CO)C(=O)N[C@@H](CO)C(=O)NCC(=O)N[C@@H](C)C(=O)N1CCC[C@H]1C(=O)N1CCC[C@H]1C(=O)N1CCC[C@H]1C(=O)N[C@@H](CO)C(=O)N[C@@H](CCCCN)C(N)=O)C(C)C [Compound 142]
Emax ([1]; Table 3): 101 to 105% | EC50 [1, 4]: < 0.1 nM | Emax ([1]; Table 3A): 101 to 105% | EC50 [1, 5]: < 0.1 nM | Emax ([2]; Table 3): 14.2 to 17% | EC50 [2, 6]: 10 to 100 nM | Emax ([2]; Table 3A): 14.2 to 17% | EC50 [2, 7]: 100 to 1000 nM | EC50 [3, 8]: 10 to 1000 nM

CC[C@H](C)[C@H](NC(=O)[C@H](CO)NC(=O)[C@H](Cc1ccc(O)cc1)NC(=O)[C@H](CC(=O)O)NC(=O)[C@H](CO)NC(=O)[C@@H](NC(=O)[C@H](Cc1ccccc1)NC(=O)[C@@H](NC(=O)CNC(=O)[C@H](CCC(=O)O)NC(=O)C(C)(C)C(=O)NCCCN1C(=O)c2ccccc2C1=O)[C@@H](C)O)[C@@H](C)O)C(=O)N[C@@H](Cc1ccc(O)cc1)C(=O)N[C@@H](CC(C)C)C(=O)N[C@@H](CC(=O)O)C(=O)N[C@@H](CCCCN)C(=O)N[C@@H](CCC(N)=O)C(=O)N[C@@H](C)C(=O)N[C@@H](C)C(=O)NC(C)(C)C(=O)N[C@@H](CCC(=O)O)C(=O)N[C@@H](Cc1ccccc1)C(=O)N[C@H](C(=O)N[C@@H](CC(N)=O)C(=O)N[C@@H](Cc1c[nH]c2ccccc12)C(=O)N[C@@H](CC(C)C)C(=O)N[C@@H](CC(C)C)C(=O)N[C@@H](C)C(=O)NCC(=O)NCC(=O)N1CCC[C@H]1C(=O)N[C@@H](CO)C(=O)N[C@@H](CO)C(=O)NCC(=O)N[C@@H](C)C(=O)N1CCC[C@H]1C(=O)N1CCC[C@H]1C(=O)N1CCC[C@H]1C(=O)N[C@@H](CO)C(=O)N[C@@H](CCCCN)C(N)=O)C(C)C [Compound 143]
Emax ([1]; Table 3): 99 to 108% | EC50 [1, 4]: 0.1 to 1 nM | Emax ([1]; Table 3A): 99 to 108% | EC50 [1, 5]: 0.1 to 1 nM | Emax ([2]; Table 3): 99 to 107% | EC50 [2, 6]: 1 to 10 nM | Emax ([2]; Table 3A): 99 to 107% | EC50 [2, 7]: 1 to 10 nM | EC50 [3, 8]: > 1000 nM

CC[C@H](C)[C@H](NC(=O)[C@H](CO)NC(=O)[C@H](Cc1ccc(O)cc1)NC(=O)[C@H](CC(=O)O)NC(=O)[C@H](CO)NC(=O)[C@@H](NC(=O)[C@H](Cc1ccccc1)NC(=O)[C@@H](NC(=O)CNC(=O)[C@H](CCC(=O)O)NC(=O)CSCC(=O)NCCN1C(=O)c2ccccc2C1=O)[C@@H](C)O)[C@@H](C)O)C(=O)N[C@@H](Cc1ccc(O)cc1)C(=O)N[C@@H](CC(C)C)C(=O)N[C@@H](CC(=O)O)C(=O)N[C@@H](CCCCN)C(=O)N[C@@H](CCC(N)=O)C(=O)N[C@@H](C)C(=O)N[C@@H](C)C(=O)NC(C)(C)C(=O)N[C@@H](CCC(=O)O)C(=O)N[C@@H](Cc1ccccc1)C(=O)N[C@H](C(=O)N[C@@H](CC(N)=O)C(=O)N[C@@H](Cc1c[nH]c2ccccc12)C(=O)N[C@@H](CC(C)C)C(=O)N[C@@H](CC(C)C)C(=O)N[C@@H](C)C(=O)NCC(=O)NCC(=O)N1CCC[C@H]1C(=O)N[C@@H](CO)C(=O)N[C@@H](CO)C(=O)NCC(=O)N[C@@H](C)C(=O)N1CCC[C@H]1C(=O)N1CCC[C@H]1C(=O)N1CCC[C@H]1C(=O)N[C@@H](CO)C(=O)N[C@@H](CCCCN)C(N)=O)[C@@H](C)CC [Compound 144] (X1-EGTFTSDYSIYLDKQAA[Aib]EFINWLLAGGPSSGAPPPSK-NH2)
EC50 ([1]; EC50 GLP-1R/nM, Table 3): 1 to 10 nM | EC50 ([1]; EC50 GLP-1R/nM, Table 3A): 1 to 10 nM | Emax ([1]; Table 3): 93 to 119% | Emax ([1]; Table 3A): 93 to 119% | EC50 ([2]; EC50 GIP-R/nM, Table 3): < 0.1 nM | EC50 ([2]; EC50 GIP-R/nM, Table 3A): < 0.1 nM | Emax ([2]; Table 3): 127 to 140% | Emax ([2]; Table 3A): 127 to 140% | EC50 [3]: > 1000 nM

CC[C@H](C)[C@H](NC(=O)[C@H](CO)NC(=O)[C@H](Cc1ccc(O)cc1)NC(=O)[C@H](CC(=O)O)NC(=O)[C@H](CO)NC(=O)[C@@H](NC(=O)[C@H](Cc1ccccc1)NC(=O)[C@@H](NC(=O)CNC(=O)[C@H](CCC(=O)O)NC(=O)CSCC(=O)NCCN1C(=O)c2ccccc2C1=O)[C@@H](C)O)[C@@H](C)O)C(=O)N[C@@H](Cc1ccc(O)cc1)C(=O)N[C@@H](CC(C)C)C(=O)N[C@@H](CC(=O)O)C(=O)N[C@@H](CCCCN)C(=O)N[C@@H](CCC(N)=O)C(=O)N[C@@H](C)C(=O)N[C@@H](C)C(=O)NC(C)(C)C(=O)N[C@@H](CC(C)C)C(=O)N[C@@H](Cc1ccccc1)C(=O)N[C@H](C(=O)N[C@@H](CC(N)=O)C(=O)N[C@@H](Cc1c[nH]c2ccccc12)C(=O)N[C@@H](CC(C)C)C(=O)N[C@@H](CC(C)C)C(=O)N[C@@H](C)C(=O)NCC(=O)NCC(=O)N1CCC[C@H]1C(=O)N[C@@H](CO)C(=O)N[C@@H](CO)C(=O)NCC(=O)N[C@@H](C)C(=O)N1CCC[C@H]1C(=O)N1CCC[C@H]1C(=O)N1CCC[C@H]1C(=O)N[C@@H](CO)C(=O)N[C@@H](CCCCN)C(N)=O)C(C)C [Compound 145] (X1-EGTFTSDYSIYLDKQAA[Aib]LFVNWLLAGGPSSGAPPPSK-NH2)
EC50 ([1]; EC50 GLP-1R/nM, Table 3): 1 to 10 nM | EC50 ([1]; EC50 GLP-1R/nM, Table 3A): 1 to 10 nM | Emax ([1]; Table 3): 100 to 104% | Emax ([1]; Table 3A): 100 to 104% | Emax ([2]; Table 3): 125% | Emax ([2]; Table 3A): 125% | EC50 ([2]; read-out: EC50 GIP-R/nM, Table 3): < 1 nM | EC50 ([2]; read-out: EC50 GIP-R/nM, Table 3A): < 1 nM | EC50 [3]: > 1000 nM

CC[C@H](C)[C@H](NC(=O)[C@H](CO)NC(=O)[C@H](Cc1ccc(O)cc1)NC(=O)[C@H](CC(=O)O)NC(=O)[C@H](CO)NC(=O)[C@@H](NC(=O)[C@H](Cc1ccccc1)NC(=O)[C@@H](NC(=O)CNC(=O)[C@H](CCC(=O)O)NC(=O)CCNC(=O)CCCN1C(=O)c2ccccc2C1=O)[C@@H](C)O)[C@@H](C)O)C(=O)N[C@@H](Cc1ccc(O)cc1)C(=O)N[C@@H](CC(C)C)C(=O)N[C@@H](CC(=O)O)C(=O)N[C@@H](CCCCN)C(=O)N[C@@H](CCC(N)=O)C(=O)N[C@@H](C)C(=O)N[C@@H](C)C(=O)NC(C)(C)C(=O)N[C@@H](CCC(=O)O)C(=O)N[C@@H](Cc1ccccc1)C(=O)N[C@H](C(=O)N[C@@H](CC(N)=O)C(=O)N[C@@H](Cc1c[nH]c2ccccc12)C(=O)N[C@@H](CC(C)C)C(=O)N[C@@H](CC(C)C)C(=O)N[C@@H](C)C(=O)NCC(=O)NCC(=O)N1CCC[C@H]1C(=O)N[C@@H](CO)C(=O)N[C@@H](CO)C(=O)NCC(=O)N[C@@H](C)C(=O)N1CCC[C@H]1C(=O)N1CCC[C@H]1C(=O)N1CCC[C@H]1C(=O)N[C@@H](CO)C(=O)N[C@@H](CCCCN)C(N)=O)C(C)C [Compound 146]
Emax ([1]; Table 3): 86 to 92% | EC50 [1, 4]: 1 to 10 nM | Emax ([1]; Table 3A): 86 to 92% | EC50 [1, 5]: 1 to 10 nM | Emax ([2]; Table 3): 83 to 97% | EC50 [2, 6]: 10 to 100 nM | Emax ([2]; Table 3A): 83 to 97% | EC50 [2, 7]: 1 to 10 nM | EC50 [3, 8]: > 1000 nM

CC[C@H](C)[C@H](NC(=O)[C@H](CO)NC(=O)[C@H](Cc1ccc(O)cc1)NC(=O)[C@H](CC(=O)O)NC(=O)[C@H](CO)NC(=O)[C@@H](NC(=O)[C@H](Cc1ccccc1)NC(=O)[C@@H](NC(=O)CNC(=O)[C@H](CCC(=O)O)NC(=O)CSCC(=O)NCCN1C(=O)c2ccccc2C1=O)[C@@H](C)O)[C@@H](C)O)C(=O)N[C@@H](Cc1ccc(O)cc1)C(=O)N[C@@H](CC(C)C)C(=O)N[C@@H](CC(=O)O)C(=O)N[C@@H](CCCCN)C(=O)N[C@@H](CCC(N)=O)C(=O)N[C@@H](C)C(=O)N[C@H](C(=O)NC(C)(C)C(=O)N[C@@H](CCC(=O)O)C(=O)N[C@@H](Cc1ccccc1)C(=O)N[C@H](C(=O)N[C@@H](CC(N)=O)C(=O)N[C@@H](Cc1c[nH]c2ccccc12)C(=O)N[C@@H](CC(C)C)C(=O)N[C@@H](CC(C)C)C(=O)N[C@@H](C)C(=O)NCC(=O)NCC(=O)N1CCC[C@H]1C(=O)N[C@@H](CO)C(=O)N[C@@H](CO)C(=O)NCC(=O)N[C@@H](C)C(=O)N1CCC[C@H]1C(=O)N1CCC[C@H]1C(=O)N1CCC[C@H]1C(=O)N[C@@H](CO)C(=O)N[C@@H](CCCCN)C(N)=O)C(C)C)C(C)C [Compound 147] (X1-EGTFTSDYSIYLDKQAV[Aib]EFVNWLLAGGPSSGAPPPSK-NH2)
EC50 ([1]; EC50 GLP-1R/nM, Table 3): 1 to 10 nM | EC50 ([1]; EC50 GLP-1R/nM, Table 3A): 1 to 10 nM | Emax ([1]; Table 3): 87 to 97% | Emax ([1]; Table 3A): 87 to 97% | EC50 ([2]; EC50 GIP-R/nM, Table 3): < 0.1 nM | EC50 ([2]; EC50 GIP-R/nM, Table 3A): < 0.1 nM | Emax ([2]; Table 3): 114 to 128% | Emax ([2]; Table 3A): 114 to 128% | EC50 [3]: > 1000 nM
